Measured values taken from US9434764B2, “Skin care compositions and methods comprising selective agonists of melanocortin 1 receptor” (University of Cincinnati, priority 2012, dated 2016).
Entries after “also recorded” stand apart in the source; their conditions may differ. Blank lines part the entries; values can stand above or below the compound they belong to.

Columns and labels:
[1] = tested on: tyrosinase activity; test: Stimulation of tyrosinase activity in cultured human melanocytes; assay type: cell-based; conditions: for TA (tyrosinase activity) compared to 10 nM αMSH: cultured human melanocytes; for concentration at which significant stimulation of tyrosinase activity begins / effect on tyrosinase activity compared to another peptide: 6-day treatment; for effect on tyrosinase activity compared to another peptide: in words
Experimental: Peptides were tested on cultured human melanocytes for their capacity for stimulating tyrosinase activity, the rate-limiting enzyme for melanin synthesis. Melanocytes were treated every other day, for a total of 6 days, with increasing concentrations of peptides. Medium containing H^3-tyrosine, the substrate for tyrosinase, was added to melanocytes 24 hours before the end of the 6-day treatment. Tyrosinase activity was measured by determining the amount of ^3H2O generated as […] is catalyzed by tyrosinase for melanin synthesis.
(§1) Peptides were tested as described in Example 4 above on cultured human melanocytes for their capacity to activate MC1R, as measured by stimulating cAMP formation, and for their capacity for stimulating tyrosinase activity, the rate-limiting enzyme for melanin synthesis. The tested peptides were synthesized according to the formula: Ar(CH2)mX^1—X^2—CO—X^3—X^4—X^5-(Trp)n-NX^6R wherein X^1 and X^2 are absent, X^3 is His, X^5 is Arg, and X^6 is H. X^4 amino acids were in the D-stereoisomer form, unless otherwise noted.

[2] = target: T1, MC1R (Homo sapiens, UniProt Q01726); test: Stimulation of cAMP formation in cultured human melanocytes; assay type: cell-based; design: MC1R is expressed on the cell surface of melanocytes; endogenous in cells; host or cells: cultured human melanocytes; conditions: for cAMP compared to 10 nM αMSH: cultured human melanocytes; for potency in stimulating cAMP formation compared to another peptide: in words
Experimental: Peptides were tested on cultured human melanocytes for their capacity to activate MC1R, as measured by stimulating cAMP formation. After 45 minutes of treatment with different concentrations of peptides, cAMP levels were measured using a I^125-labeled radioimmunoassay kit.
as §1

[3] = target: T1, MC1R; test: cAMP stimulation in heterologous cells expressing human MC1R; assay type: cell-based; design: expressed in transfected cells; conditions: for EC50: cAMP, heterologous cells; for potency in activation of MC1R compared to MT-II: in words
Experimental: (§2) Receptor selectivity of peptide agonists for hMC1R was determined by stimulation of cAMP in heterologous cells expressing different human melanocortin receptors (MC1R, MC3R, MC4R, and MC5R).

[4] = target: T2, hMC4R (Homo sapiens, UniProt P32245); test: cAMP stimulation in heterologous cells expressing human MC4R; assay type: cell-based; conditions: for EC50: cAMP, heterologous cells
T2 construct: expressed in transfected cells
Experimental: as §2

[5] = target: T3, hMC3R (Homo sapiens, UniProt P41968); test: cAMP stimulation in heterologous cells expressing human MC3R; assay type: cell-based; conditions: for EC50: cAMP, heterologous cells; for binding of MC3R: in words
T3 construct: expressed in transfected cells
Experimental: as §2

[6] = target: T4, hMC5R (Homo sapiens, UniProt P33032); test: cAMP stimulation in heterologous cells expressing human MC5R; assay type: cell-based; conditions: for EC50: cAMP, heterologous cells; for binding of MC5R: in words
T4 construct: expressed in transfected cells
Experimental: as §2

[7] = tested on: mouse MCRs; conditions: in words; cited from earlier work
[8] = tested on: human melanocytes; test: Potency in human melanocytes; assay type: cell-based; conditions: in words
From the text: Satyanarayanajois S. D., et al., Conformations of end-capped melanocortin agonists RCO-X-Z-Arg-Trp-NH2 by 2D-NMR, CD and computations, Peptides Breaking Away: Proceedings of the Twenty-First American Peptide Association 384 (2009). […] Ruwe A. R. et al., Semi-rigid tripeptide agonists of melanocortin receptors, Bioorg. Med. Chem. Lett. 19(17): 5176-81 (2009). […] Thus, while not desiring to be bound by theory, it is believed that the conformational restraints favorable for longer peptides may be unfavorable for shorter MC1R agonists, including the Formula I and Formula II peptides disclosed herein.

[9] = tested on: UV-irradiated human melanocytes; test: Repair of UV-induced cyclobutane pyrimidine dimers (CPD) in human melanocytes; assay type: cell-based; conditions: for CPD removal at 1 nM compared to 10 nM α-MSH: 1 nM peptide, 48 hours post UV
Experimental: To investigate the effects of peptides on the repair of UV-induced DNA damage, levels of cyclobutane pyrimidine dimers (CPD), the major form of DNA photoproducts, were measured in UV-irradiated human melanocytes with or without peptide treatment. Melanocytes were pretreated with the peptides for 4 days prior to, and for 48 hours post UV exposure, harvested, immunostained by a specific antibody for CPD, and analyzed by flow cytometry.

[10] = Peptide storage stability by HPLC; assay type: physicochemical; conditions: lyophilized, open air, room temperature, 4 months
Experimental: LK-513 (Ph(CH2)3CO-His-(D-4-Bip)-Arg-NHMe) was tested for stability and degradation over a storage period. The peptide was stored in a lyophilized form in open air at room temperature for 4 months. After 4 months, HPLC was performed on a test sample of the peptide in order to measure degradation, using standard methods (FIG. 1). […] Without being bound by theory, it is believed that the enhanced stability is a product of the absence of amide bonds between natural L-L-amino acids in the tripeptides and the existence of only one amide bond between natural amino acids in the tetrapeptides (Arg-Trp). Amide bonds between non-natural D- and natural L-amino acids are less prone to chemical and enzymatic hydrolysis, as evidenced by the FIG. 1. Further, the bulk and hydrophobicity of the X4 amino acid (D-Phe or a bulky hydrophobic analog thereof, such as D-4-Bip in the case of LK-513) shield the polar amid bonds of the peptide from chemical and enzymatic degradation.

[11] = tested on: UV-irradiated human melanocytes; test: Repair of UV-induced 8-oxodG in human melanocytes; assay type: cell-based
Experimental: To investigate the effects of peptides on repair of UV-induced DNA damage, levels of 8-oxodG, a major form of oxidative DNA damage, were measured in UV-irradiated human melanocytes with or without peptide treatment. […] Fluorescence intensity, which correlates with the amount of DNA damage, was quantified using ImagJ software.

T2 sequence (P32245 whole entry): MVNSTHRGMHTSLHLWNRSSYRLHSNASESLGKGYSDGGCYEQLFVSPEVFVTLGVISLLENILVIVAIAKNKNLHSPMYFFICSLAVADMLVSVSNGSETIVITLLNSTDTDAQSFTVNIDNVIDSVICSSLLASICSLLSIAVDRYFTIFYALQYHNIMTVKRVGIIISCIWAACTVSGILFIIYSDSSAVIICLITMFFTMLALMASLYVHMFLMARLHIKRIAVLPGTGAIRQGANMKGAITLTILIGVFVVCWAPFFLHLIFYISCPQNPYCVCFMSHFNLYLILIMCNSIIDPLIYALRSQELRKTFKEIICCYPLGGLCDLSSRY
T3 sequence (P41968 whole entry): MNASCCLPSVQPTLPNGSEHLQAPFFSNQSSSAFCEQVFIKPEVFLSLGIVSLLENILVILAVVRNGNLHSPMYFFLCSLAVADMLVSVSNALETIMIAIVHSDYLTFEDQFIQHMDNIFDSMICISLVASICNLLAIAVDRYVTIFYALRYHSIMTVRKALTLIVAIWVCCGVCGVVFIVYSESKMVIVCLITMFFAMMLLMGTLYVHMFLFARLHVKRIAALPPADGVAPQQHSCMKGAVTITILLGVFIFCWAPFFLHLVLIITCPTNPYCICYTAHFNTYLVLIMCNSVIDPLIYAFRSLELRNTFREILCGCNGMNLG
T4 sequence (P33032 whole entry): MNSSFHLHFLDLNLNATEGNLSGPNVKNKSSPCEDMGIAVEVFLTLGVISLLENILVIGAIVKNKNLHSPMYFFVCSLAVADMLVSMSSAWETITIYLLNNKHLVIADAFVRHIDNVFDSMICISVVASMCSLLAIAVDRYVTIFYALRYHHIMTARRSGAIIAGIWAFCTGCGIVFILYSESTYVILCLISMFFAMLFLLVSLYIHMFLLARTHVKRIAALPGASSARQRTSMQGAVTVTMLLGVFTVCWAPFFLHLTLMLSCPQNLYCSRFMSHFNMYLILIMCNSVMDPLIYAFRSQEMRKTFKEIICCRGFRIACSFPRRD
T1 sequence (Q01726 whole entry): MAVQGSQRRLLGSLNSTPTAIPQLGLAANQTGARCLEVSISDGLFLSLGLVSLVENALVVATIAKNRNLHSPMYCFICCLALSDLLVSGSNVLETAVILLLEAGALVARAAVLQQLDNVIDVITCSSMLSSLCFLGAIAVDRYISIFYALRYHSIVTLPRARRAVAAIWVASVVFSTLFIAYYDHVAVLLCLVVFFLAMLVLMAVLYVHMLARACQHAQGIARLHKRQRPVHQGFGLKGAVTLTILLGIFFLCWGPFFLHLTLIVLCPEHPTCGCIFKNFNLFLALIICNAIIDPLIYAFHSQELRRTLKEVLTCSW

- TA (tyrosinase activity) compared to 10 nM αMSH [1]: ≧
- cAMP compared to 10 nM αMSH [2]: ≦
Compound: 4-FC6H4CH2CO-His-(D-4-FPhe)-Arg-Trp-NH2 [LK 205P]

- TA (tyrosinase activity) compared to 10 nM αMSH [1]: <<<
Compound: Ph(CH2)3CO-His-(D-2-Nal)-Arg-NHMe [LK 517P]

- EC50 [3]: 1.46 nM
- potency in activation of MC1R compared to MT-II [3]: about as potent as MT-II
- TA (tyrosinase activity) compared to 10 nM αMSH [1]: <
- concentration at which significant stimulation of tyrosinase activity begins ([1]; human melanocytes): 1 nM
- EC50 [4]: > 10000 nM
- binding of MC4R ([4]; in words): do not bind
- EC50 [5]: > 10000 nM
- binding of MC3R [5]: do not bind
- EC50 [6]: > 10000 nM
- binding of MC5R [6]: do not bind
- potency in stimulating cAMP formation compared to another peptide ([2]; human melanocytes): about ten times less potent than α-MSH
Compound: N=C(N)NCCC[C@H](NC(=O)[C@@H](Cc1ccc(-c2ccccc2)cc1)NC(=O)[C@H](Cc1c[nH]cn1)NC(=O)CCCc1ccccc1)C(N)=O [LK-511, Ph(CH2)3CO-His-(D-4-Bip)-Arg-NH2]

- effect on tyrosinase activity compared to another peptide ([1]; human melanocytes): equipotent to LK-467
- potency in stimulating cAMP formation compared to another peptide ([2]; human melanocytes): equipotent to LK-467
Compound: Ph(CH2)3CO-His-(D-Phe)-Arg-Trp-NHEt [LK-487]

- TA (tyrosinase activity) compared to 10 nM αMSH [1]: NR (NR = No Response/inactive at 10 nM)
Compound: Ph(CH2)3CO-His-(D-1-Nal)-Arg-NHMe [LK 512P]

Compound: trans-4-HOC6H4CH═CHCO-His-D-Phe-Arg-NH2
- MC1R selectivity and potency at mouse MCRs compared to LK-394 [7]: moderately increased MC1R selectivity and potency
- potency in human melanocytes [8]: less potent

- EC50 [3]: 0.19 nM
- EC50 [5]: 22.7 nM
- EC50 [6]: 262 nM
- concentration giving maximal cAMP ([2]; human melanocytes, 45 minutes of treatment): 10 nM
Compound: N=C(N)NCCC[C@H](NC(=O)[C@@H](Cc1ccccc1)NC(=O)[C@H](Cc1c[nH]cn1)NC(=O)CCCc1ccccc1)C(=O)N[C@@H](Cc1c[nH]c2ccccc12)C(N)=O [LK-184, Ph(CH2)3CO-His-(D-Phe)-Arg-Trp-NH2]
- effect on tyrosinase activity compared to another peptide ([1]; human melanocytes): comparable effects in tyrosinase activity
- CPD removal at 1 nM compared to 10 nM α-MSH [9]: same effect at 1 nM on CPD removal as 10 nM α-MSH

- TA (tyrosinase activity) compared to 10 nM αMSH [1]: <<
Compound: Ph(CH2)3CO-His-(D-2-Nal)-Arg-NH2 [LK 515P]

- TA (tyrosinase activity) compared to 10 nM αMSH [1]: NR (NR = No Response/inactive at 10 nM)
Compound: Ph(CH2)3CO-His-(D-1-Nal)-Arg-NH2 [LK 510P]

- TA (tyrosinase activity) compared to 10 nM αMSH [1]: <<
Compound: Ph(CH2)3CO-His-(D-4-tBuPhe)-Arg-NHMe [LK 516P]

- cAMP compared to 10 nM αMSH [2]: ≧
Compound: 3,4-O(CH2)2C6H4CH2CO-His-(D-4-FPhe)-Arg-Trp-NH2 [LK 210P]

- cAMP compared to 10 nM αMSH [2]: ≦
Compound: Ph(CH2)3CO-His-(D-2-Nal)-Arg-Trp-NH2 [LK 468P]

- EC50 [3]: 3.27 nM
- potency in activation of MC1R compared to MT-II [3]: about as potent as MT-II
- TA (tyrosinase activity) compared to 10 nM αMSH [1]: <
- concentration at which significant stimulation of tyrosinase activity begins ([1]; human melanocytes): 1 nM
- EC50 [4]: > 10000 nM
- binding of MC4R ([4]; in words): do not bind
- EC50 [5]: > 10000 nM
- binding of MC3R [5]: do not bind
- EC50 [6]: > 10000 nM
- binding of MC5R [6]: do not bind
- potency in stimulating cAMP formation compared to another peptide ([2]; human melanocytes): about ten times less potent than α-MSH
Compound: CNC(=O)[C@H](CCCNC(=N)N)NC(=O)[C@@H](Cc1ccc(-c2ccccc2)cc1)NC(=O)[C@H](Cc1c[nH]cn1)NC(=O)CCCc1ccccc1 [LK-513, Ph(CH2)3CO-His-(D-4-Bip)-Arg-NHMe]
- stability and degradation by HPLC [10]: highly stable and resistant to degradation, showing only a single HPLC peak; also recorded: highly stable and substantially free of degradation

- EC50 [3]: 0.34 nM
- potency compared to α-MSH in activating MC1R and stimulating melanogenesis ([1]; human melanocytes, tyrosinase activity): at least 100 times
- EC50 [4]: 18.1 nM
- potency at hMC4R compared to LK-184 ([4]; in words): about ten times less potent
- EC50 [5]: 32.4 nM
- EC50 [6]: 122 nM
- potency in stimulating cAMP formation compared to another peptide ([2]; human melanocytes): more potent than LK-184
Compound: N=C(N)NCCC[C@H](NC(=O)[C@@H](Cc1cccc2ccccc12)NC(=O)[C@H](Cc1c[nH]cn1)NC(=O)CCCc1ccccc1)C(=O)N[C@@H](Cc1c[nH]c2ccccc12)C(N)=O [LK-467, Ph(CH2)3CO-His-(D-1-Nal)-Arg-Trp-NH2]
- effect on tyrosinase activity compared to another peptide ([1]; human melanocytes): comparable effects in tyrosinase activity
- reduction of 8-oxodG levels compared to LK-184 ([11]; 24 hours after UV exposure): as effective as LK-184
- CPD removal at 1 nM compared to 10 nM α-MSH [9]: same effect at 1 nM on CPD removal as 10 nM α-MSH
- reduction of CPD levels compared to LK-184 ([9]; 48 hours after UV exposure): as effective as LK-184

- EC50 [3]: 3.65 nM
- potency in activation of MC1R compared to MT-II [3]: about as potent as MT-II
- TA (tyrosinase activity) compared to 10 nM αMSH [1]: <
- concentration at which significant stimulation of tyrosinase activity begins ([1]; human melanocytes): 1 nM
- effect on tyrosinase activity compared to another peptide ([1]; human melanocytes): the most effective
- EC50 [4]: > 10000 nM
- binding of MC4R ([4]; in words): do not bind
- EC50 [5]: > 10000 nM
- binding of MC3R [5]: do not bind
- EC50 [6]: > 10000 nM
- binding of MC5R [6]: do not bind
Compound: CC(C)(C)c1ccc(C[C@@H](NC(=O)[C@H](Cc2c[nH]cn2)NC(=O)CCCc2ccccc2)C(=O)N[C@@H](CCCNC(=N)N)C(N)=O)cc1 [LK-514, Ph(CH2)3CO-His-(D-4-tBuPhe)-Arg-NH2]
- potency in stimulating cAMP formation compared to another peptide ([2]; human melanocytes): about ten times less potent than α-MSH; also recorded: more potent than LK-511 or 513; also recorded: more potent than LK-511 or LK-513
- reduction of 8-oxodG levels at 100 nM compared to 1 nM α-MSH ([11]; 100 nM peptide, 24 hours post UV): greater effect than 1 nM α-MSH
